Reference: article PMC4149238, “Systemic delivery of P42 peptide: a new weapon to fight Huntington’s disease” (Acta Neuropathologica Communications, 2014)
Residues, ends and D or L forms follow the SMILES beside them. *: point of attachment. 5TAMRA = CN(C)c1ccc2c(c1)Oc1cc(N(C)C)ccc1C21OC(=O)c2cc(C(=O)*)ccc21

Key:
[1] = test system: flies expressing hHtt exon1 with expanded polyQ; conditions: cited from earlier work
Source text: Most research undertaken to find a cure for HD focus on the mutated allele (trying to reduce its expression), or on the polyQ stretch that is responsible for aggregation, but that is also present in other neurodegenerative diseases. Our approach is based on the observation that the ratio between normal and mutant Huntingtin is a crucial factor in the onset and progression of the disease. In a previous work, we confirmed the protective role of wild-type N-terminus Htt. We further screened human hHtt, for peptides able to prevent polyQ-hHtt aggregation i ... || The efficient rescue supported by P42 administration represents one of the best therapeutic effects described so far. Therapeutic research currently targets mutant Htt at transcriptional or post-translational level. The recent works in RNA interference or ASO strategies attempt to reduce the expression of the mutant transcript. Despite recent progress, the limitation of this approach lays in the effects on the wild-type allele and the aggravation of the loss of function effects. Biochemical molecules and intrabodies have also been designed against the protein, in order to target abnorma ...

[2] = test system: GFP-hHtt^171aa-Q136 aggregation; test: polyQ-hHtt aggregation in transfected HeLa cells (microscopy); format: cell-based, human; conditions: HeLa cells co-transfected with GFP-hHtt171aa-Q136 and vector expressing Cherry-tagged peptide, vs empty vector
Procedure: (§1) HeLa cells were grown and maintained in DMEM medium (Gibco) supplemented with 10% fetal calf serum and glutamine. HeLa cells were grown in 6 well plates, and pDdest53-GFP-hHtt^171aa-136Q (0.75 μg) was transfected with JetPei reagent (Qbiogene). Equal amounts of pcDNA-Cherry-P42 or control vector were added for each transfection to level the total amount of plasmid DNA. To test the internalization of exogenous peptide, synthesized TAMRA-P42-TAT was added at the same time as pDest53-GFP-hHtt^171aa-Q136 transfection, at different concentrations (0, 0.5, 1, 5, 10 or 20 μM). Cells were incubated with plasmid and peptide for 12 h. Then the medium was washed twice with PBS, the cells trypsinized, and grown on a coverslip with new DMEM medium for 6 h. This step was necessary to eliminate the peptide that crystallizes on the well. Eventually, cells were fixed with 4% paraformaldehyde and immunostained for microscopic analysis. To observe the internalization of the peptide TAMRA-P42-TAT, the signal was amplified by anti-TAMRA immunostaining (1:500- Invitrogen). Nuclei were counterstained with DAPI (4′, 6 diamino-2-phenylindole). The pictures were taken with a confocal laser scanning microscope model LSM780 (Carl Zeiss).

HeLa cells [3] = test: Internalization of exogenous peptide into HeLa cells; format: cell-based, human; conditions: synthetic TAMRA end-labelled peptide in culture medium, anti-TAMRA immunostaining, confocal
Procedure: as §1

[4] = test system: brain of wild-type C57BL/6 J mice; test: Brain distribution of TAMRA-P42-TAT after ICV injection; format: in vivo, mouse
Procedure: To test the stability of the peptide in the brain, single intracerebroventricular (ICV) injection of peptides was performed in the right ventricle of C57BL/6 mice as described in [15]. 5 μg or 1 μg of TAMRA-P42-TAT were stereotaxically injected into the right lateral ventricle (coordinates 1 mm right lateral to bregma and 3 mm ventral to the skull surface) of C57BL/6 J mice using a 10 μl Hamilton syringe at a rate of 0.2 μl to 1 μl/min. As a control, saline was injected in the same volume and at the same rate. […]
TAMRA-P42-TAT injected mice were also immunostained with rabbit monoclonal anti-DARPP32 (MAb2306 - Cell Signaling Technology - 1: 1600), secondary detected by Alexa 488 anti-rabbit (1: 2000) to label the striatum, and with mouse monoclonal anti-NeuN (MAB377 – Millipore - 1: 1000), secondary detected by Dye light blue anti-mouse (1: 500), as a neuronal marker.

HeLa cells [5] = test: MTT test of HeLa cell survival; format: cell-based, human; conditions: large excess of peptide, data not shown
[6] = test system: brain of wild-type C57BL/6 J mice; test: Brain targeting after buccal/rectal NP42T (MALDI Imaging Mass Spectrometry); format: in vivo, mouse; conditions: NP42T 210 μg, four buccal and four rectal administrations, 3 h, MALDI IMS, two mice
Procedure: For MALDI analysis, wild-type C57BL/6 J mice have been injected either by ICV (2.1 μg), or treated with empty NP, or with NP42T (210 μg) microemulsions. For NP and NP42T, four buccal and four rectal administrations (1 ml/kg) have been performed, spaced by 30 minutes to ensure mucosa internalization. Two mice have been treated for each condition and sacrificed 3 h after the injections.
Tissue preparation and MALDI imaging analysis: Frozen brain sections were cut in 15 μm slices using an HM 550 OVPD cryostat (Fisher Scientific, Illkirch, France), set at −20°C, mounted on ITO coated conductive glass slides and allowed to thaw and desiccate in a vacuum desiccator. Tissue sections were then coated manually with a 10 mg/ml α-cyano-4-hydroxycinnamic acid dissolved in 50% acetonitrile (ACN) and 0.1% trifluoroacetic acid (TFA).
MALDI imaging was performed using the 4800 Plus MALDI TOF/TOF^TM Analyzer (AB Sciex). Image acquisition was achieved using the 4800 imaging tool software (MSI imaging). […]
The two dimensional ion image of the tissue section was analyzed using Tissue View^TM software (Applied Biosystems/MDS analytical technologies). A colour scale representing signal intensity is exported from Tissue View^TM software to provide semi quantitative information.

[7] = mice brain soluble extract, 15 μg peptide, incubation 0, 1, 3 and 6 h, MALDI-MS
Source text: MALDI MS and MS/MS analysis: Spectra acquisition has been performed using the 4800 Plus MALDI TOF/TOF^TM mass spectrometer (ABSciex) controlled by the 4000 Series Explorer^TM. MS spectra were acquired in a reflector positive mode (mass range: m/z 700–4000, laser intensity set at 50% and 3000 total laser shots per spectrum, MS resolution ≥ 12000–17000). MS/MS precursor was selected manually with an absolute mass window of 1 Da and each MS/MS spectrum is the result of 1000 total laser shots with a laser intensity set at 50% and a MS/MS resolution ≥ 2000–5000. The fragmentation was performed at collision energy of 2 kV and a collision air pressure set at 10^−6 Torr.

wild-type mice = test: Tolerability in NP42T-treated wild-type mice; format: in vivo, mouse; conditions: week 2 to 11
Procedure: For animal experimentation, a cohort of 30 females was divided into four groups (WT treated with empty NP (n = 5); WT treated with NP42T (n = 8); R6/2 treated with empty NP (n = 8); R6/2 treated with NP42T (n = 9)). Administrations were performed five days a week, at the same time of the day, starting in 2-week-old mice. The treatment was performed until the mice were sacrificed (at week 11). NP42T peptide (600 μg/ml/kg) was administrated twice a day per mucosa, with two buccal injections until the mice were 4 week old, and via rectal and buccal injections for older animals older.

Compound: P42: 23aa peptide lying in the N-terminus (position 480–502 aa) of normal human Htt
- eye degeneration of flies expressing hHtt exon1 with expanded polyQ ([1]; Drosophila model of HD): able to prevent eye degeneration
- effects on lifespan [1]: partial
- rescue of GFP-Htt^171aa-Q136 aggregation [2]: completely rescue

Compound: CC[C@H](C)[C@H](NC(=O)[C@H](CC(=O)O)NC(=O)[C@H](Cc1c[nH]cn1)NC(=O)CNC(=O)[C@H](C)NC(=O)[C@H](CO)NC(=O)CNC(=O)[C@@H]1CCCN1C(=O)[C@@H](NC(=O)[C@H](CO)NC(=O)[C@@H](NC(=O)CNC(=O)[C@H](CO)NC(=O)[C@H](CO)NC(=O)[C@H](C)NC(=O)[C@H](C)NC(=O)c1ccc2c(c1)C(=O)OC21c2ccc(N(C)C)cc2Oc2cc(N(C)C)ccc21)C(C)C)[C@@H](C)O)C(=O)N[C@H](C(=O)N[C@H](C(=O)N[C@@H](CCC(=O)O)C(=O)N[C@@H](CCC(N)=O)C(=O)N1CCC[C@H]1C(=O)N[C@@H](CCCNC(=N)N)C(=O)N[C@@H](CO)C(=O)NCC(=O)NCC(=O)N[C@@H](Cc1ccc(O)cc1)C(=O)NCC(=O)N[C@@H](CCCNC(=N)N)C(=O)N[C@@H](CCCCN)C(=O)N[C@@H](CCCCN)C(=O)N[C@@H](CCCNC(=N)N)C(=O)N[C@@H](CCCNC(=N)N)C(=O)N[C@@H](CCC(N)=O)C(=O)N[C@@H](CCCNC(=N)N)C(=O)N[C@@H](CCCNC(=N)N)C(=O)N[C@@H](CCCNC(=N)N)C(=O)O)[C@@H](C)O)[C@@H](C)CC [TAMRA-P42-TAT] (5TAMRA-AASSGVSTPGSAGHDIITEQPRSGGYGRKKRRQRRR-OH; N-terminus and C-terminus assumed)
- uptake into cultured cells (HeLa cells [3]): taken up by almost all the cells
- detection in brain 24 hrs after ICV injection ([4]; C57BL/6 J mice, ICV 5 μg or 1 μg, 24 hrs, data not shown, n = 12): still detected
- distribution in the striatum after ICV injection ([4]; wild-type C57BL/6 J mice, ICV, sacrificed 3 hours after injection, TAMRA signal, DARPP32/NeuN co-staining): largely diffusing within the neurons
- IC50 on HeLa cell survival (MTT test) (HeLa cells [5]): could not be measured

Compound: CC[C@H](C)[C@H](NC(=O)[C@H](CC(=O)O)NC(=O)[C@H](Cc1c[nH]cn1)NC(=O)CNC(=O)[C@H](C)NC(=O)[C@H](CO)NC(=O)CN)C(=O)N[C@H](C(=O)N[C@H](C(=O)N[C@@H](CCC(=O)O)C(=O)N[C@@H](CCC(N)=O)C(=O)N1CCC[C@H]1C(=O)N[C@@H](CCCNC(=N)N)C(=O)N[C@@H](CO)C(=O)NCC(=O)NCC(=O)N[C@@H](Cc1ccc(O)cc1)C(=O)NCC(=O)O)[C@@H](C)O)[C@@H](C)CC [m/z 1801.84 derivative] (H-GSAGHDIITEQPRSGGYG-OH)
- presence in the brain after Aonys administration [6]: still present in the brain

Compound: CC[C@H](C)[C@H](NC(=O)[C@H](CC(=O)O)NC(=O)[C@H](Cc1c[nH]cn1)NC(=O)CNC(=O)[C@H](C)NC(=O)[C@H](CO)NC(=O)CNC(=O)[C@@H]1CCCN1C(=O)[C@@H](NC(=O)[C@H](CO)NC(=O)[C@@H](NC(=O)CNC(=O)[C@H](CO)NC(=O)[C@H](CO)NC(=O)[C@H](C)NC(=O)[C@H](C)N)C(C)C)[C@@H](C)O)C(=O)N[C@H](C(=O)N[C@H](C(=O)N[C@@H](CCC(=O)O)C(=O)N[C@@H](CCC(N)=O)C(=O)N1CCC[C@H]1C(=O)N[C@@H](CCCNC(=N)N)C(=O)N[C@@H](CO)C(=O)NCC(=O)NCC(=O)N[C@@H](Cc1ccc(O)cc1)C(=O)NCC(=O)N[C@@H](CCCNC(=N)N)C(=O)N[C@@H](CCCCN)C(=O)N[C@@H](CCCCN)C(=O)N[C@@H](CCCNC(=N)N)C(=O)N[C@@H](CCCNC(=N)N)C(=O)N[C@@H](CCC(N)=O)C(=O)N[C@@H](CCCNC(=N)N)C(=O)N[C@@H](CCCNC(=N)N)C(=O)N[C@@H](CCCNC(=N)N)C(=O)O)[C@@H](C)O)[C@@H](C)CC [P42-TAT] (H-AASSGVSTPGSAGHDIITEQPRSGGYGRKKRRQRRR-OH)
- time until full length peptide was degraded [7]: ≤ 1 h
- presence in the brain after Aonys administration [6]: able to reach the brain
- toxicity noticed during the study (wild-type mice): no toxicity
